Measurements from PubChem BioAssay AID1259407 (Chemical Carcinogenesis Research Information System (CCRIS), 2018).
Activity calls are given as the source filed them. The rule behind the calls is not given here.

System: CCRIS mutagenicity, Ames/micronucleus/aberration tests
Experiment: CCRIS mutagenicity studies
[1] = Test System: AMES SALMONELLA TYPHIMURIUM, Strain/Indicator: TA98, Metabolic Activation: NONE, Method: STANDARD PLATE
[2] = Test System: AMES SALMONELLA TYPHIMURIUM, Strain/Indicator: TA98, Metabolic Activation: RAT, LIVER, S-9, AROCLOR 1254, Method: STANDARD PLATE
[3] = Test System: AMES SALMONELLA TYPHIMURIUM, Strain/Indicator: TA100, Metabolic Activation: NONE, Method: STANDARD PLATE
[4] = Test System: AMES SALMONELLA TYPHIMURIUM, Strain/Indicator: TA100, Metabolic Activation: RAT, LIVER, S-9, AROCLOR 1254, Method: STANDARD PLATE
[5] = Test System: AMES SALMONELLA TYPHIMURIUM, Strain/Indicator: TA1537, Metabolic Activation: RAT, LIVER, S-9, AROCLOR 1254, Method: STANDARD PLATE
[6] = Test System: AMES SALMONELLA TYPHIMURIUM, Strain/Indicator: TA98, Metabolic Activation: NONE, Method: PREINCUBATION
[7] = Test System: AMES SALMONELLA TYPHIMURIUM, Strain/Indicator: TA100, Metabolic Activation: NONE, Method: PREINCUBATION

Measured: mutagenic call

O=C(CCc1ccc(O)cc1)c1c(O)cc(O)cc1O
inactive: Test System: AMES SALMONELLA TYPHIMURIUM, Strain/Indicator: TA98, Metabolic Activation: HAMSTER, LIVER, S-9, AROCLOR 1254, Method: STANDARD PLATE inactive; negative | [1] inactive; negative | [2] inactive; negative | Test System: AMES SALMONELLA TYPHIMURIUM, Strain/Indicator: TA100, Metabolic Activation: HAMSTER, LIVER, S-9, AROCLOR 1254, Method: STANDARD PLATE inactive; negative | [3] inactive; negative | [4] inactive; negative | Test System: AMES SALMONELLA TYPHIMURIUM, Strain/Indicator: TA1535, Metabolic Activation: HAMSTER, LIVER, S-9, AROCLOR 1254, Method: STANDARD PLATE inactive; negative | Test System: AMES SALMONELLA TYPHIMURIUM, Strain/Indicator: TA1535, Metabolic Activation: NONE, Method: STANDARD PLATE inactive; negative | Test System: AMES SALMONELLA TYPHIMURIUM, Strain/Indicator: TA1535, Metabolic Activation: RAT, LIVER, S-9, AROCLOR 1254, Method: STANDARD PLATE inactive; negative | Test System: AMES SALMONELLA TYPHIMURIUM, Strain/Indicator: TA1537, Metabolic Activation: HAMSTER, LIVER, S-9, AROCLOR 1254, Method: STANDARD PLATE inactive; negative | Test System: AMES SALMONELLA TYPHIMURIUM, Strain/Indicator: TA1537, Metabolic Activation: NONE, Method: STANDARD PLATE inactive; negative | [5] inactive; negative | Test System: AMES SALMONELLA TYPHIMURIUM, Strain/Indicator: TA1538, Metabolic Activation: HAMSTER, LIVER, S-9, AROCLOR 1254, Method: STANDARD PLATE inactive; negative | Test System: AMES SALMONELLA TYPHIMURIUM, Strain/Indicator: TA1538, Metabolic Activation: NONE, Method: STANDARD PLATE inactive; negative | Test System: AMES SALMONELLA TYPHIMURIUM, Strain/Indicator: TA1538, Metabolic Activation: RAT, LIVER, S-9, AROCLOR 1254, Method: STANDARD PLATE inactive; negative

CC(=O)c1cccc(N=[N+]([O-])c2ccc(N)c(C(C)=O)c2C)c1C
inactive: [6] inactive; negative | Test System: AMES SALMONELLA TYPHIMURIUM, Strain/Indicator: TA98, Metabolic Activation: RAT, LIVER, S-9, PHENOBARBITAL AND 5,6-BENZOFLAVONE, Method: PREINCUBATION inactive; negative | [7] inactive; negative | Test System: AMES SALMONELLA TYPHIMURIUM, Strain/Indicator: TA100, Metabolic Activation: RAT, LIVER, S-9, PHENOBARBITAL AND 5,6-BENZOFLAVONE, Method: PREINCUBATION inactive; negative

Nc1ccccc1SCCSc1ccccc1N
inactive: [2] inactive; negative
active: [4] active; positive

C[C@]12C=CC(=O)C=C1CC[C@@H]1[C@@H]2[C@@H](O)C[C@@]2(C)[C@H]1CC[C@]2(O)C(=O)CO
active: Test System: MOUSE LYMPHOMA, Strain/Indicator: L5178Y (TK+/TK-), Metabolic Activation: RAT, LIVER, S-9, AROCLOR 1254, Method: SUSPENSION/PLATE active; positive
inactive: [6] inactive; negative | Test System: AMES SALMONELLA TYPHIMURIUM, Strain/Indicator: TA98, Metabolic Activation: S-9, Method: PREINCUBATION inactive; negative | [7] inactive; negative | Test System: AMES SALMONELLA TYPHIMURIUM, Strain/Indicator: TA100, Metabolic Activation: S-9, Method: PREINCUBATION inactive; negative | Test System: MOUSE LYMPHOMA, Strain/Indicator: L5178Y (TK+/TK-), Metabolic Activation: NONE, Method: SUSPENSION/PLATE inactive; negative

Cc1cc2cc3ccccc3c3ccc4cccc1c4c23
active: Test System: AMES SALMONELLA TYPHIMURIUM, Strain/Indicator: TA100, Metabolic Activation: RAT, INTACT HEPATOCYTES, AROCLOR 1254, Method: PREINCUBATION active; positive | Test System: AMES SALMONELLA TYPHIMURIUM, Strain/Indicator: TA100, Metabolic Activation: RAT, NADPH-FORTIFIED HOMOGENIZED HEPATOCYTES, AROCLOR 1254, Method: PREINCUBATION active; positive

COC(=O)[C@H]1O[C@H]1c1ccccc1
active: [3] active; positive

CC1CCC(C(C)CS)CC1S (configuration not stated)
inactive: Test System: AMES SALMONELLA TYPHIMURIUM, Strain/Indicator: TA98, Metabolic Activation: HAMSTER, LIVER, S-9, AROCLOR 1254, Method: PREINCUBATION inactive; negative | [6] inactive; negative | Test System: AMES SALMONELLA TYPHIMURIUM, Strain/Indicator: TA98, Metabolic Activation: RAT, LIVER, S-9, AROCLOR 1254, Method: PREINCUBATION inactive; negative | Test System: AMES SALMONELLA TYPHIMURIUM, Strain/Indicator: TA100, Metabolic Activation: HAMSTER, LIVER, S-9, AROCLOR 1254, Method: PREINCUBATION inactive; negative | [7] inactive; negative | Test System: AMES SALMONELLA TYPHIMURIUM, Strain/Indicator: TA100, Metabolic Activation: RAT, LIVER, S-9, AROCLOR 1254, Method: PREINCUBATION inactive; negative | Test System: AMES SALMONELLA TYPHIMURIUM, Strain/Indicator: TA1535, Metabolic Activation: HAMSTER, LIVER, S-9, AROCLOR 1254, Method: PREINCUBATION inactive; negative | Test System: AMES SALMONELLA TYPHIMURIUM, Strain/Indicator: TA1535, Metabolic Activation: NONE, Method: PREINCUBATION inactive; negative | Test System: AMES SALMONELLA TYPHIMURIUM, Strain/Indicator: TA1535, Metabolic Activation: RAT, LIVER, S-9, AROCLOR 1254, Method: PREINCUBATION inactive; negative | Test System: AMES SALMONELLA TYPHIMURIUM, Strain/Indicator: TA1537, Metabolic Activation: HAMSTER, LIVER, S-9, AROCLOR 1254, Method: PREINCUBATION inactive; negative | Test System: AMES SALMONELLA TYPHIMURIUM, Strain/Indicator: TA1537, Metabolic Activation: NONE, Method: PREINCUBATION inactive; negative | Test System: AMES SALMONELLA TYPHIMURIUM, Strain/Indicator: TA1537, Metabolic Activation: RAT, LIVER, S-9, AROCLOR 1254, Method: PREINCUBATION inactive; negative

Cc1ccc2ccc3c(ccc4c5cccc(C)c5ccc43)c2c1
inactive: Test System: AMES SALMONELLA TYPHIMURIUM, Strain/Indicator: TA97, Metabolic Activation: RAT, LIVER, S-9, AROCLOR 1254, Method: STANDARD PLATE inactive; negative | [2] inactive; negative | [4] inactive; negative | Test System: AMES SALMONELLA TYPHIMURIUM, Strain/Indicator: TA102, Metabolic Activation: RAT, LIVER, S-9, AROCLOR 1254, Method: STANDARD PLATE inactive; negative | Test System: AMES SALMONELLA TYPHIMURIUM, Strain/Indicator: TA104, Metabolic Activation: RAT, LIVER, S-9, AROCLOR 1254, Method: STANDARD PLATE inactive; negative | [5] inactive; negative

O=C(c1ccccc1)[C@@H]1O[C@@H]1c1ccc(Br)cc1
inactive: [1] inactive; negative | [2] inactive; negative | [3] inactive; negative | [4] inactive; negative
